{"source": "patent US8796326B1", "about": "“Fire ant killer (F.A.K.)/ insecticide” (priority 2008, dated 2014)", "origin": "cited, not measured here", "tested_on": "bacterial contamination on the hands and on treated products", "data": [{"smiles": "Oc1cc(Cl)ccc1Oc1ccc(Cl)cc1Cl", "note": "[Triclosan, 5-chloro-2-(2,4-dichlorophenoxy)phenol]", "values": [{"measurement": "reducing and controlling bacterial contamination", "result": "effective"}]}]}
